Results on eleven compounds are retold here after patent publication US10544130B2, “Metallo-beta-lactamase inhibitors” (priority 2015, dated 2020).

The subject of the data set is Pseudomonas aeruginosa PAO1 MB9798 (efflux+, IMP-1). To be noted: ratio MITC95 PA 9798/MITC95 PA 9799; imipenem at 2 μg/mL. The source says: The strain background was Pseudomonas aeruginosa PAO1.
The strain set was then used as a pair to determine the effect of metallo-β-lactamase inhibitors of Formula I on the MIC of imipenem and/or ceftazidime. A fixed concentration of antibiotic was included in standard microbroth MIC tests, usually at the CLSI (Clinical and Laboratory Standards Institute) breakpoint concentration. A fixed amount of a class A/C beta-lactamase inhibitor was also included to inhibit the resident Pseudomonas AmpC enzyme. A serial titration of the metallo-β-lactamase inhibitor was included and the concentration of metallo-β-lactamase inhibitor which restores susceptibility of the strain to the included antibiotic was recorded. That concentration of metallo-β-lactamase inhibitor was then compared between the two strains to determine the fold difference between the efflux + (MB9798) and efflux − (MB9799) strains. This was taken as an indication of the extent to which the MBLi is subject to efflux.
For `Cn1c(N)nc2c(-c3ccc(S(=O)(=O)N[C@H]4CC[N+](C)(C)C4)c(S(N)(=O)=O)c3-c3nn[n-]n3)cccc21` [Example 167, (S)-5-(6-(2-amino-1-methyl-1H-benzo[d]imidazol-4-yl)-3-(N-(1,1-dimethylpyrrolidin-1-ium-3-yl)sulfamoyl)-2-sulfamoylphenyl)tetrazol-2-ide], the Efflux ratio worked out at 2.00.
The figure for `Nc1nc2c(-c3ccc(S(=O)(=O)N[C@@H]4CCCNC4)c(S(N)(=O)=O)c3-c3nnn[nH]3)cccc2[nH]1` [Example 178, (R)-4-(2-amino-1H-benzo[d]imidazol-4-yl)-N^1-(piperidin-3-yl)-3-(1H-tetrazol-5-yl)benzene-1,2-disulfonamide] is 1.00; for `CN1CC[C@@H](NS(=O)(=O)c2ccc(-c3cccc4[nH]c(N)nc34)c(-c3nn[nH]n3)c2S(N)(=O)=O)C1` [Example 232, (R)-4-(2-amino-1H-benzo[d]imidazol-4-yl)-N^1-(1-methylpyrrolidin-3-yl)-3-(2H-tetrazol-5-yl)benzene-1,2-disulfonamide] it is 2.00.
As to `CS(=O)(=O)Nc1ccc(-c2ccc(S(=O)(=O)N[C@@H]3CCNC3)c(S(N)(=O)=O)c2-c2nnn[nH]2)cc1` [Example 136, (R)-4′-(methylsulfonamido)-N4-(pyrrolidin-3-yl)-2-(1H-tetrazol-5-yl)-[1,1′-biphenyl]-3,4-disulfonamide], the Efflux ratio is on record as 2.00.
In the case of `Nc1nc2c(-c3ccc(S(=O)(=O)N[C@@H]4CCCNC4)c(S(N)(=O)=O)c3-c3nnn[nH]3)cccc2s1` [Example 69, 4-(2-amino-1,3-benzothiazol-4-yl)-N1-[(3R)-piperidin-3-yl]-3-(1H-tetrazol-5-yl)benzene-1,2-disulfonamide], the Efflux ratio was 0.50.
As to `Nc1nc2c(-c3ccc(S(=O)(=O)N4CC5CC4CS5(=O)=O)c(S(N)(=O)=O)c3-c3nnn[nH]3)cccc2s1` (centres unmarked) [Example 40, 3-(2-amino-1,3-benzothiazol-4-yl)-6-[(2,2-dioxido-2-thia-5-azabicyclo[2.2.1]hept-5-yl)sulfonyl]-2-(1H-tetrazol-5-yl)benzenesulfonamide], the Efflux ratio is on record as 16.00.
For the compound `Nc1nc2c(-c3ccc(S(=O)(=O)N[C@H]4CO[C@H]5[C@@H]4OC[C@H]5N)c(S(N)(=O)=O)c3-c3nnn[nH]3)cccc2s1.O=C(O)C(F)(F)F` [Example 103, (3R,3aR,6S,6aR)-6-(4-(2-aminobenzo[d]thiazol-4-yl)-2-sulfamoyl-3-(1H-tetrazol-5-yl)phenylsulfonamido) hexahydrofuro[3,2-b] furan-3-aminium 2,2,2-trifluoroacetate], the Efflux ratio came to 2.00.
As for `Nc1nc2c(-c3ccc(S(=O)(=O)NCC4(N)CC4)c(S(N)(=O)=O)c3-c3nn[nH]n3)cccc2s1` [Example 149, 4-(2-aminobenzo[d]thiazol-4-yl)-N1-((1-aminocyclopropyl)methyl)-3-(2H-tetrazol-5-yl)benzene-1,2-disulfonamide], the figure is 1.00; as for `Nc1nc2c(-c3ccc(S(=O)(=O)NCC4CCN4)c(S(N)(=O)=O)c3-c3nn[nH]n3)cccc2[nH]1` (centres unmarked) [Example 207, 4-(2-amino-1H-benzo[d]imidazol-4-yl)-N1-(azetidin-2-ylmethyl)-3-(2H-tetrazol-5-yl)benzene-1,2-disulfonamide], 2.00; as for `NCC1CN(S(=O)(=O)c2ccc(-c3cccc4sc(N)nc34)c(-c3nnn[nH]3)c2S(N)(=O)=O)CCO1.O=C(O)C(F)(F)F` (centres unmarked) [Example 104, (4-((4-(2-aminobenzo[d]thiazol-4-yl)-2-sulfamoyl-3-(1H-tetrazol-5-yl)phenyl)sulfonyl)morpholin-2-yl) methanaminium 2,2,2-trifluoroacetate], 2.00.
With `NCCNS(=O)(=O)c1ccc(-c2cccc(C(=O)NC[C@H](N)CO)c2N)c(-c2nn[nH]n2)c1S(N)(=O)=O` [Example 333, (S)-2-amino-N-(2-amino-3-hydroxypropyl)-4′-(N-(2-aminoethyl)sulfamoyl)-3′-sulfamoyl-2′-(2H-tetrazol-5-yl)-[1,1′-biphenyl]-3-carboxamide], the Efflux ratio is 1.00.
